Marks after values point to notes of the source that are not given here.
Experiments:
IgG [1] = experiment: IgG/Au staining of coated polystyrene, type of endgroups
Protocol: Except where indicated, the non-ionic surfactants were applied to the hydrophobic surfaces being tested as a 0.1% (weight/volume) solution in isopropanol. A sufficient amount of coating solution was used to cover the surface being testing with a thin layer of the solution (e.g., 25 μl of the solution per well for a standard 24-well plate). In some cases, the solution was applied to surface by spraying; in others, it was poured onto the surface (into the well). Except where indicated, coated samples were either dried at 70° C. for 30 minutes in an air circulated oven or dried at room temperature overnight to evaporate the isopropanol. Protein binding was determined in some examples using a colloidal gold straining procedure. In accordance with this procedure, colloidal gold becomes electrostatically attached to bound protein and is detected by measuring absorbance at 550 nanometers. Bio-Rad Laboratories' Colloidal Gold Total Protein Stain was used for this purpose, with absorbance being measured with a Cambridge Technologies Plate Reader (No. 7520). The non-ionic surfactants listed in Table 6 were tested for their ability to produce a low binding surface using the techniques described in Materials and Methods. Polystyrene was used as the hydrophobic test surface and IgG/Au staining was used as the readout.

Horse IgG = experiment: Protein binding by colloidal gold staining, coated medium binding polystyrene plates; conditions: coated medium binding PS; IgG 10 μg/ml, pH 9.4
Protocol: Except where indicated, the non-ionic surfactants were applied to the hydrophobic surfaces being tested as a 0.1% (weight/volume) solution in isopropanol. A sufficient amount of coating solution was used to cover the surface being testing with a thin layer of the solution (e.g., 25 μl of the solution per well for a standard 24-well plate). In some cases, the solution was applied to surface by spraying; in others, it was poured onto the surface (into the well). Except where indicated, coated samples were either dried at 70° C. for 30 minutes in an air circulated oven or dried at room temperature overnight to evaporate the isopropanol.
Protein binding was determined in some examples using a colloidal gold straining procedure. In accordance with this procedure, colloidal gold becomes electrostatically attached to bound protein and is detected by measuring absorbance at 550 nanometers. Bio-Rad Laboratories' Colloidal Gold Total Protein Stain was used for this purpose, with absorbance being measured with a Cambridge Technologies Plate Reader (No. 7520).
The surfactants were coated onto medium binding polystyrene plates (Corning Costar No. 2587) as described in Material and Methods.
The plates were incubated with IgG as follows: 0.1 ml of Horse IgG (Pierce Labs) at a working concentration of 10 μg/ml in 0.10M NaHCO3 buffer (pH9.4) were added to each well, incubated 30 minutes on a rocker table, and rinsed with dI H2O. The plates were gold stained overnight (0.3 ml/well), rinsed in dI H2O, air dried, and absorbance was measured at 550 nm.

[2] = tested on: BSA protein (Bovine Serum Albumin, Fraction V); experiment: BSA binding to coated polystyrene 24-well plates at different pH, colloidal gold stain; conditions: for Absorbance (550 nm) pH = 9.2: BSA 10 μg/ml in 0.10 M NaHCO3 buffer; for Absorbance (550 nm) pH = 7.4: BSA 10 μg/ml in 0.10 M PBS; for Absorbance (550 nm) pH = 4.6: BSA 10 μg/ml in 0.10 M acetate buffer
Protocol: Polystyrene plates having 24 wells (Corning Costar #9447) were coated as described in Materials and Methods.
BSA protein (Bovine Serum Albumin, Fraction V, Sigma) was prepared at 10 μg/ml in 0.10 M acetate buffer (pH=4.6), in 0.10 M PBS (pH=7.4), and in 0.10 M NaHCO3 buffer (pH=9.2). Wells of each coated plate, along with uncoated controls, were aliquoted 0.50 ml each of the protein solutions. The samples were run in triplicate.
The plates were placed on a rocker table for 30 minutes at 23° C. The protein solutions were then emptied from the plates, and the wells were rinsed three times with dl H2O. Thereafter, 1.0 ml of colloidal gold stain was added to each well (see Materials and Methods). The plates were placed on a rocker table overnight, rinsed three times with dI H2O, and air dried. Absorbance at 550 nm was then read using the Cambridge Technologies Plate Reader.

IgG [3] = experiment: Coating durability using water washes, IgG binding by colloidal gold; conditions: for Absorbance (550 nm) Initial: coated polystyrene, no water wash; for Absorbance (550 nm) 1 Time 1 hr 23° C. / Absorbance (550 nm) 1 Time 24 hr 23° C. / Absorbance (550 nm) 1 Time 24 hr 37° C. / Absorbance (550 nm) 1 Time 24 hr 70° C.: dI H2O wash 1 time; for Absorbance (550 nm) 6 Times 30 min each 23° C.: dI H2O wash 6 times
Protocol: Polystyrene plates having 24 wells (Corning Costar #9447) were coated with these surfactants as described in Materials and Methods. Durability was tested by adding dI H2O to the wells of a test plate (3.0 mls/well), following which the plate was placed on a rocker table. […] The protein solution was incubated with the plate on a rocker table for 30 minutes at 23° C., following which the plate was H2O rinse 3× (3 mls each time). The colloidal gold staining procedure described above was used to reveal bound protein. The staining comprised an overnight incubation on a rocker table at 23° C., a dI H2O rinse, drying at room temperature, and reading at 550 nm.

HRP-Goat A'Mouse IgG = experiment: Enzymatic determination of protein binding to coated medium binding polystyrene plate; conditions: coated medium binding PS; versus uncoated high binding polystyrene plate; absorbance 405 nm
Protocol: The surfactants were coated onto a medium binding polystyrene plate (Corning Costar No. 2587) as described in Material and Methods. A medium binding polystyrene plate (Corning Costar No. 2587) and a high binding polystyrene plate (Corning Costar No. 2581) were used as controls.
(a) HRP-Goat A'Mouse IgG: Kirkegaard & Perry Laboratories, Inc. Catalog No. 074-1806. Stock solution: 0.5 mg/ml; working concentration: 0.04 μg/ml. The working concentration was obtained by adding 11 μl of the stock solution per 25 mls of PBS pH 7.4 to produce a work stock (WS), and then diluting 1:6 (i.e., 10 mls WS+50 mls PBS pH 7.4).
(1) 100 μl-well of HRP-Goat A'Mouse IgG at a concentration of 0.04 μg/ml were added to the test wells and incubated for 1 hour at room temperature.
(2) The wells were then washed 5 times with the 1M wash solution. Each wash include a 5 minute soak followed by decanting.
(3) 100 μl/well of substrate (30 mls ABTS+30 mls H2O2) were added to the test wells and incubated for 15 minutes at room temperature in the dark.
(4) 100 μl/well of stopping solution (1% SDS) were added to the test wells.
(5) The plates were then shaken and read at 405 nm.
(6) Reduction in binding was determined by comparing the absorbance measured in step (5) with the absorbance measured for a high binding polystyrene plate which had not been treated with a non-ionic surfactant but otherwise subjected to steps (1) to (5).

BSA = experiment: Polymer blends molded into petri dishes, BSA binding by colloidal gold
Protocol: Low binding non-ionic surfactant molecules were blended at 5% (except as noted in Table 13) into a base polymer using a twin screw extruder, then injection molded into the shape of 35 mm petri dishes. Proteins tested were BSA and Fetal Bovine Serum (FBS). Protein binding was determined using a colloidal gold staining procedure as described above. In the case of the polypropylene and EVA blends, a silver enhancer was used (Sigma Chem. Co., St, Louis, Mo., Kit #SE-100).

Fetal Bovine Serum (FBS) = experiment: Polymer blends molded into petri dishes, FBS protein binding by colloidal gold
[4] = blended at 5% into polypropylene, silver enhancer

In the case of PEO(200) DI-OLEATE, the “Bound Protein Absorbance at 550 nm” value (IgG [1]) is reported as 0.15.

In the case of PEO(400) DI-OLEATE, the “Bound Protein Absorbance at 550 nm” value (IgG [1]) is reported as 0.15.

PEO(400) DI-STEARATE was tested, and the “Bound Protein Absorbance at 550 nm” value (IgG [1]) was 0.10.

PEO(600) DI-STEARATE was tested, and the “Bound Protein Absorbance at 550 nm” value (IgG [1]) was 0.10.

For SORBITOL MONO-LAURATE, the “IgG Protein Binding Absorbance (550 nm)” value (Horse IgG) was 0.00, the “Absorbance (550 nm) pH = 9.2” value [2] was 0.00 and the “Absorbance (550 nm) pH = 7.4” value [2] was 0.00. The “Absorbance (550 nm) pH = 4.6” value [2] was 0.00, the “Absorbance (550 nm) Initial” value (IgG [3]) was 0.00 and the “Absorbance (550 nm) 1 Time 1 hr 23° C.” value (IgG [3]) was 0.00. For the same substance, the “Absorbance (550 nm) 1 Time 24 hr 23° C.” value (IgG [3]) was 0.00, the “Absorbance (550 nm) 1 Time 24 hr 37° C.” value (IgG [3]) was 0.00 and the “Absorbance (550 nm) 1 Time 24 hr 70° C.” value (IgG [3]) was 0.00-0.02. The “Absorbance (550 nm) 6 Times 30 min each 23° C.” value (IgG [3]) was 0.02-0.06.

With SORBITOL MONO-STEARATE the “IgG Protein Binding Absorbance (550 nm)” value (Horse IgG) was 0.00, the “% Reduction in Protein Binding” value (HRP-Goat A'Mouse IgG) was 83.1* % and the “Bound Protein Absorbance (550 nm) BSA” value (BSA; [4]) was 0.000. The “Absorbance (550 nm) pH = 9.2” value [2] was 0.00, the “Absorbance (550 nm) pH = 7.4” value [2] was 0.00 and the “Absorbance (550 nm) pH = 4.6” value [2] was 0.00. The “Bound Protein Absorbance (550 nm) FBS” value (Fetal Bovine Serum (FBS); [4]) was 0.000, the “Absorbance (550 nm) Initial” value (IgG [3]) was 0.00 and the “Absorbance (550 nm) 1 Time 1 hr 23° C.” value (IgG [3]) was 0.00. The “Absorbance (550 nm) 1 Time 24 hr 23° C.” value (IgG [3]) was 0.00, the “Absorbance (550 nm) 1 Time 24 hr 37° C.” value (IgG [3]) was 0.00 and the “Absorbance (550 nm) 1 Time 24 hr 70° C.” value (IgG [3]) was 0.00. The “Absorbance (550 nm) 6 Times 30 min each 23° C.” value (IgG [3]) was 0.00.

SORBITOL TRI-STEARATE was tested, and the “Bound Protein Absorbance (550 nm) BSA” value (BSA; blended at 5% into polystyrene) was 0.005 and the “Bound Protein Absorbance (550 nm) FBS” value (Fetal Bovine Serum (FBS); blended at 5% into polystyrene) was 0.008.

Source: patent publication US7776572B2, “Method for reducing loss of enzyme activity during storage” (Corning Incorporated, priority 1996, dated 2010)
